Patent publication US7928107B2, “Quinazolines useful as modulators of ion channels” (Vertex Pharmaceuticals Incorporated, priority 2004, dated 2011)

Biological target: NaV 1.8 channel (Homo sapiens, UniProt Q9Y5Y9)
Assay: Activity against NaV 1.8 channel (optical membrane potential assay)
Assay type: cell-based
Procedure, shortened: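 FRET membrane-potential assay (coumarin CC2-DMPE donor, oxonol DiSBAC2(3) acceptor plus veratridine) on VIPR; compound added with oxonol for 20–30 min before Na+ add-back stimulation. Activity from background-subtracted 460/580 nm ratio change (baseline 2–7 s, response 15–24 s) relative to tetracaine positive and drug-free negative controls.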

NaV 1.8 channel, sequence (Q9Y5Y9 whole entry): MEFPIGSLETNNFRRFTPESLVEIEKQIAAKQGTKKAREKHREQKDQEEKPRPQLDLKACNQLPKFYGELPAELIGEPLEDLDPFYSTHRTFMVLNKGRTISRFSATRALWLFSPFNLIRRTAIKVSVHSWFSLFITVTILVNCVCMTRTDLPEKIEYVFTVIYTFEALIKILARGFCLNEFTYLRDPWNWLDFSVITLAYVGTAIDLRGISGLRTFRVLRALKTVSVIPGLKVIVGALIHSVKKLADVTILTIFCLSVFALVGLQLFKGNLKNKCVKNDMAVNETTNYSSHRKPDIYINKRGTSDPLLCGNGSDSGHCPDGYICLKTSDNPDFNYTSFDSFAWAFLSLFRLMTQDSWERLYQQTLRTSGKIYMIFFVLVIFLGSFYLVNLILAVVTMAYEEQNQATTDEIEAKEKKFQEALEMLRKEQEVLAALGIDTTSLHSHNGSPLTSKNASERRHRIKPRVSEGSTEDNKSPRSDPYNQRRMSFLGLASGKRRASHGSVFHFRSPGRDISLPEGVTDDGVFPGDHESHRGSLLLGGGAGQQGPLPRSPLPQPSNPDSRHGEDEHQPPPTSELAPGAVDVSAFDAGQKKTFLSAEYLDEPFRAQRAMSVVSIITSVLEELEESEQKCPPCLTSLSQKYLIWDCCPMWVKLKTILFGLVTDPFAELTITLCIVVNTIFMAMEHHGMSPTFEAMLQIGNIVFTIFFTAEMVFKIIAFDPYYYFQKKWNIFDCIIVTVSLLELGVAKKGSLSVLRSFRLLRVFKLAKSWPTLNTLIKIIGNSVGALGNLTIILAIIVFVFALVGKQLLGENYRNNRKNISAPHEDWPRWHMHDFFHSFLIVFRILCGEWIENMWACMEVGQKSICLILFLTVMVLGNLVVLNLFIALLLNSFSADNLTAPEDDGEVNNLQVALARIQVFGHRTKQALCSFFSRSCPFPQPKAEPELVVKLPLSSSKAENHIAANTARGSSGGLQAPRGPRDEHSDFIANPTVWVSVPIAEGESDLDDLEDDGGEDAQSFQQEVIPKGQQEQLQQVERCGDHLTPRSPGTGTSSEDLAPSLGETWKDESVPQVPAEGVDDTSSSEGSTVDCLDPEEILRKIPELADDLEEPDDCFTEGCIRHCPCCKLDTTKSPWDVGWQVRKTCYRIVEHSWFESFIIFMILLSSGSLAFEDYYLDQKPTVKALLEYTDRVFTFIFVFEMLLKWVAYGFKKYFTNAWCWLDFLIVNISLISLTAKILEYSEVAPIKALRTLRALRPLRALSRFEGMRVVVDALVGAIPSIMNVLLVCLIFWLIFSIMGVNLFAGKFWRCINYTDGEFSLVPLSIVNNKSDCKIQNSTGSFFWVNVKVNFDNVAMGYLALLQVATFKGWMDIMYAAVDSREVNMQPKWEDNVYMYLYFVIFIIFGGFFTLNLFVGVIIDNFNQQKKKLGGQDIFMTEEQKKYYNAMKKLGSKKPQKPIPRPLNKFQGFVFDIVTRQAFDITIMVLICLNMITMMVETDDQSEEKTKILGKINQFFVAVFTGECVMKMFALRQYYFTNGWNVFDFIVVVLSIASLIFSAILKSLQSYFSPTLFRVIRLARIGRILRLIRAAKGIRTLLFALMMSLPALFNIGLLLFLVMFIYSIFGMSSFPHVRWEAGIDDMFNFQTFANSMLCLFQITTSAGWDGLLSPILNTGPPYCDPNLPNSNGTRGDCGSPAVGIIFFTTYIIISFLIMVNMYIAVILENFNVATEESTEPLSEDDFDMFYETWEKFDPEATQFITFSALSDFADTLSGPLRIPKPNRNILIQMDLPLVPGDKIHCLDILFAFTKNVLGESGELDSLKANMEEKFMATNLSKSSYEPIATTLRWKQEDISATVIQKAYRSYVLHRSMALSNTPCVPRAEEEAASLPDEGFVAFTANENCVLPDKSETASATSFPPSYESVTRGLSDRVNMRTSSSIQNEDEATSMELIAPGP

IC50 | Structure (SMILES)
> 10 µM | Cc1ccc2c(N3CCN(C(=O)O[C@@H]4CCOC4)[C@@H](CO)C3)nc(-c3ccccc3O)nc2c1 [Example 149, (2R)-(R)-Tetrahydrofuran-3-yl 2-(hydroxymethyl)-4-(2-(2-hydroxyphenyl)-7-methylquinazolin-4-yl)piperazine-1-carboxylate]
2 to 10 µM | Cc1ccc2c(N3CC[C@@H](NC(=O)[C@H](O)CC(C)(C)C)C3)nc(-c3ccccc3O)nc2c1 [Example 361, (2R)-2-Hydroxy-N—((R)-1-(2-(2-Hydroxyphenyl)-7-methylquinazolin-4-yl)pyrrolidin-3-yl)-4,4-dimethylpentanamide]
> 10 µM | C[C@@H](O)CC(=O)N1CCN(c2nc(-c3ccccc3O)nc3ccccc23)CC1 [Example 173, (R)-3-Hydroxy-1-(4-(2-(2-hydroxyphenyl)quinazolin-4-yl)piperazin-1-yl)butan-1-one]
2 to 10 µM | CC(C)=CC(O)C(=O)N1CCN(c2nc(-c3ccccc3O)nc3cc(C)ccc23)CC1 (stereo not drawn) [Example 189]
< 2 µM | Cc1ccc2c(N3CC[C@H](NC(=O)OC(C)(C)C)C3)nc(-c3ccccc3O)nc2c1 [Example 370, tert-Butyl (S)-1-(2-(2-hydroxyphenyl)-7-methylquinazolin-4-yl)pyrrolidin-3-ylcarbamate]
> 10 µM | Cc1ccc2c(N3CCN(C(=O)[C@H](O)CC(C)(C)O)CC3)nc(-c3ccccc3O)nc2c1 [Example 164, (R)-2,4-Dihydroxy-1-(4-(2-(2-hydroxyphenyl)-7-methylquinazolin-4-yl)piperazin-1-yl)-4-methylpentan-1-one]

The next lines start with the compound.

Structure (SMILES) | IC50
Cc1ccc2c(N3CCCC(CNC(=O)O[C@H]4CCOC4)C3)nc(-c3ccccc3O)nc2c1 (stereo partly drawn) [Example 211, (S)-Tetrahydrofuran-3-yl (1-(2-(2-hydroxyphenyl)-7-methylquinazolin-4-yl)piperidin-3-yl)methylcarbamate] | > 10 µM
O=C(N[C@@H]1CCN(c2nc(-c3ccccc3O)nc3ccc(F)cc23)C1)c1ccccn1 [Example 348, N—((R)-1-(6-Fluoro-2-(2-hydroxyphenyl)quinazolin-4-yl)pyrrolidin-3-yl)picolinamide] | > 10 µM
Cc1ccc2c(N3CCC[C@H](CNC(=O)O[C@H]4CCOC4)C3)nc(-c3ccccc3O)nc2c1 [Example 217, (S)-Tetrahydrofuran-3-yl ((R)-1-(2-(2-hydroxyphenyl)-7-methylquinazolin-4-yl)piperidin-3-yl)methylcarbamate] | > 10 µM
CC(C)(O)C(=O)NC1CCN(c2nc(-c3ccccc3O)nc3ccccc23)CC1 [Example 235, 2-Hydroxy-N-(1-(2-(2-hydroxyphenyl)quinazolin-4-yl)piperidin-4-yl)-2-methylpropanamide] | 2 to 10 µM
Cc1ccc2c(N3CC[C@H](CNC(=O)[C@H]4CCCO4)C3)nc(-c3ccccc3O)nc2c1 [Example 308, (2R)-Tetrahydro-N—(((R)-1-(2-(2-hydroxyphenyl)-7-methylquinazolin-4-yl)pyrrolidin-3-yl)methyl)furan-2-carboxamide] | > 10 µM
O=C(OCC1CCCCO1)N1CCN(c2nc(-c3ccccc3O)nc3ccc(F)cc23)CC1 (stereo not drawn) [Example 160, (Tetrahydro-2H-pyran-2-yl)methyl 4-(6-fluoro-2-(2-hydroxyphenyl)quinazolin-4-yl)piperazine-1-carboxylate] | > 10 µM
O=C(OCc1cccc2c1OCO2)N1CCN(c2nc(-c3ccccc3O)nc3ccccc23)CC1 [Example 140, (Benzo[d][1,3]dioxol-7-yl)methyl 4-(2-(2-hydroxyphenyl)quinazolin-4-yl)piperazine-1-carboxylate] | > 10 µM
CCOC(=O)NC[C@@H]1CCCN(c2nc(-c3c(O)cccc3F)nc3cc(C)ccc23)C1 [Example 262, Ethyl ((S)-1-(2-(2-fluoro-6-hydroxyphenyl)-7-methylquinazolin-4-yl)piperidin-3-yl)methylcarbamate] | 2 to 10 µM
Cc1ccc2c(N3CCC[C@@H](CNC(=O)O[C@H]4CO[C@@H]5OCC[C@@H]54)C3)nc(-c3ccccc3O)nc2c1 [Example 281] | 2 to 10 µM
